Test results reported in article PMC8952364, “Polyphenols as Inhibitors of Antibiotic Resistant Bacteria—Mechanisms Underlying Rutin Interference with Bacterial Virulence” (Pharmaceuticals, 2022).
Converted amounts (≈) assume the structure as drawn.

How the values were obtained:
MRSA IBRS MRSA 011 [1] = experiment: Membrane permeability assay (nucleotide and protein leakage); format: cell-based, Staphylococcus aureus; settings: rutin MIC; more significant increase in absorbance at 260 and 280 nm after 90 min
Procedure: The effect of rutin on membrane permeability (nucleotide and protein leakage) was evaluated as described earlier with some modifications. The culture of P. aeruginosa IBRS P001 and MRSA IBRS MRSA 011 was incubated overnight at 37 °C, washed, and suspended in 10 mM PBS in order to achieve the final density of 10^8 CFU/mL. Bacteria were incubated with rutin at a concentration equal to MIC for time intervals 0, 30, 60, and 90 min. Bacteria incubated with PBS were used as control. After incubation the mixture was filtered through a 0.22 μm pore size filter to remove […]. The optical density of the filtrate was measured at 260 and 280 nm with an Agilent/HP 8453 UV-Visible Spectrophotometer (Agilent Technologies, Santa Clara, CA, USA) at room temperature (25 °C).

[2] = system: Methicillin resistant S. aureus IBRS MRSA 011; experiment: Antimicrobial microdilution assay (MIC/MBC); format: cell-based, Staphylococcus aureus; settings: Staphylococcus aureus, MRSA
Summary of the method: (§1)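 Broth microdilution: 0.5 McFarland suspensions, diluted twenty-fold, were mixed 1:10 with polyphenol dilutions (0.0039–1 mg/mL) and incubated 24 h at 37 °C.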

[3] = system: P. aeruginosa IBRS P001 biofilm; experiment: Quantification of eDNA (biofilm formation); format: cell-based; settings: Pseudomonas aeruginosa, IBRSP001BIOFILM; 0.25 MIC, 0.125 mg/mL; read-out: inhibition of eDNA levels
Procedure: The quantity of eDNA was determined as previously described, with some modifications. […] Subsequently, the planktonic cells were removed, and the wells were washed with PBS. TE buffer (Tris-EDTA buffer solution) was added to the wells and content was mixed vigorously by pipetting. The samples were transferred to 1.5 mL tubes and centrifuged at 10,000× g for 10 min. After removal of the supernatant, the pellet was suspended in a TE buffer by vortexing. Absorbance of the supernatant (260 nm) was measured after centrifugation at 10,000× g for 15 min. We calculated the inhibition percentage of eDNA relative to an untreated control. The solvent treated sample was used as the control.

A. xylosoxidans 37F = experiment: Antimicrobial microdilution assay (MIC/MBC); format: cell-based, Achromobacter xylosoxidans; settings: Achromobacter xylosoxidans, 37F
Summary of the method: as §1

[4] = system: P. aeruginosa IBRS P001 rhamnolipid production; experiment: Rhamnolipid assay; format: cell-based, Pseudomonas aeruginosa; settings: 0.25 mg/mL (0.5 MIC), compared to the control
Procedure: Culture supernatants of the previously cultivated P. aeruginosa IBRS P001 strain incubated with rutin 0.250 mg/mL were acidified by using HCl to pH 2.0 [72]. Rhamnolipid production was measured spectrophotometrically at 570 nm by a Plate Reader Infinite 200 pro (MTX Lab Systems, Vienna, VA, USA). A solvent treated culture supernatant was used as a positive control.

HaCaT cells = experiment: Cytotoxicity in HaCaT cell line (crystal violet assay); format: cell-based, human; settings: Homo sapiens, HaCaT, 24 h, read-out: IC50 (compound concentration that inhibited 50% of the cell growth)
Summary of the method: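 HaCaT keratinocytes seeded 1 × 10^4 cells/well 24 h before treatment, then exposed to polyphenols for 24 h. Viable cells stained with crystal violet, absorbance at 590 nm. IC50 in μg/mL, triplicate with three readings each, mean ± SD.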

A. baumannii 6077/12 = experiment: Antimicrobial microdilution assay (MIC/MBC); format: cell-based, Acinetobacter baumannii; settings: Acinetobacter baumannii, 6077/12
Summary of the method: as §1

A. baumannii S2/2 = experiment: Antimicrobial microdilution assay (MIC/MBC); format: cell-based, Acinetobacter baumannii; settings: Acinetobacter baumannii, S2/2
Summary of the method: as §1

P. aeruginosa IBRS P001 = experiment: Catheter biofilm eradication model (24 h old biofilm); format: cell-based, Pseudomonas aeruginosa
Procedure: (§2) For the catheter biofilm eradication assay, P. aeruginosa and MRSA were incubated in TSB with 2% glucose with 1 cm long catheters in 24-well plates at 37 °C for 24 h. […] Subsequently, the catheters were washed and treated, as described above.

MRSA IBRS MRSA 011 [5] = format: cell-based, Staphylococcus aureus
Procedure: as §2

[6] = system: P. aeruginosa IBRS P001 biofilm; experiment: Crystal violet antibiofilm assay (biofilm formation); format: cell-based, Pseudomonas aeruginosa; settings: 24 h
Summary of the method: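 After incubation, biofilms were washed with PBS (pH 7.4), methanol-fixed and stained 30 min with 0.1% crystal violet. Stain was solubilised in 96% ethanol and read at 620 nm. Values are biofilm-forming capacity (%) relative to control.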

[7] = subcultivation, 24 h at 37 °C, read-out: MBC
[8] = 24 h old catheter biofilm, concentration not printed (MBC-4MBC tested, probably 4 MBC)

C[C@@H]1O[C@@H](OC[C@H]2O[C@@H](Oc3c(-c4ccc(O)c(O)c4)oc4cc(O)cc(O)c4c3=O)[C@H](O)[C@@H](O)[C@@H]2O)[C@H](O)[C@H](O)[C@H]1O [Rutin, rutin]
cell membrane integrity, in words (MRSA IBRS MRSA 011 [1]): disrupted
MIC ([2]; 37 °C, 24 h, read-out: MIC): 500 µg/mL (≈ 819 µM)
MBC [2, 7]: 1000 µg/mL (≈ 1640 µM)
inhibition at 125 µg/mL [3]: > 50%
MIC (A. xylosoxidans 37F; 37 °C, 24 h, read-out: MIC): 500 µg/mL (≈ 819 µM)
MBC (A. xylosoxidans 37F; [7]): 1000 µg/mL (≈ 1640 µM)
decrease of rhamnolipid production [4]: 74.4%
IC50 (HaCaT cells): > 1000 µg/mL
MIC (A. baumannii 6077/12; 37 °C, 24 h, read-out: MIC): 500 µg/mL (≈ 819 µM)
MBC (A. baumannii 6077/12; [7]): 500 µg/mL (≈ 819 µM)
MIC (A. baumannii S2/2; 37 °C, 24 h, read-out: MIC): 500 µg/mL (≈ 819 µM)
MBC (A. baumannii S2/2; [7]): 500 µg/mL (≈ 819 µM)
catheter biofilm eradicated (P. aeruginosa IBRS P001; 2 MBC, 24 h old biofilm): 73.7%
biofilm cells remained viable after the treatment (P. aeruginosa IBRS P001; [8]): 10.9%
catheter biofilm eradicated (MRSA IBRS MRSA 011 [5]; 2 MBC, 24 h old biofilm): 74.2%
biofilm cells remained viable after the treatment (MRSA IBRS MRSA 011 [5]; [8]): 9.6%
reduction of biofilm formation (biomass), in words ([6]; MIC and sub-MIC, crystal violet, Figure 1): significant (****, p < 0.0001) reduction
biofilm biomass formed after treatment ([6]; MIC, 500 µg/mL): 6%
inhibition at 500 µg/mL ([6]; Pseudomonas aeruginosa, IBRSP001BIOFILM, 500 µg/mL (MIC)): 94%
